According to PubChem BioAssay AID1963841 (Molecular Pharmacology Branch, DTP, NCI, 2024):

System: 439559-082-T-J2-PDC spheroid viability
Assay: Anticancer human tumor 439559-082-T-J2-PDC patient-derived colon adenocarcinoma cell line growth inhibition [POLQ]
Settings: spheroids with HUVEC and MSC; for IC50: curve of first compound; for viability, T/C: stronger effect = lower value
Experimental: Multicellular complex tumor spheroid response to Polymerase (POL) inhibitors (novobiocin, ART-558, RP6685) in combination with a variety of drugs and investigational agents in selected tumor cell lines
The POL inhibitors (novobiocin, ART-558, and RP6685) were evaluated both individually and in combination with standard of care and investigational anticancer small molecules within a complex spheroid model of solid tumors. . Complex spheroids include a stromal component modeled by human endothelial cells (HUVEC) and fibroblasts modeled by human mesenchymal stem cells (MSCs). The concentration ranges selected for each drug and investigational agent were based upon clinically achievable concentrations if the clinical Cmax of the agent was known.
Compounds. The drugs and investigational agents: novobiocin (NSC847541), ART-558 (NSC835418), RP-6685 (NSC848927), peposertib (NSC802822), ceralasertib (NSC780249), elimusertib (NSC800525), camonsertib (NSC841442), AZD-1390 (NSC803789), olaparib (NSC753686), talazoparib (NSC767125), rucaparib (NSC756644), sotorasib (NSC818433), MRTX-1133 (NSC836407), SN-38 (NSC673596), topotecan (NSC609699), epotoside (NSC141540), doxorubicin (NSC123127), gemcitabine (NSC613327), 5-fluorouracil (NSC19893), paclitaxel (NSC125973), vemurafenib (NSC761431), MSA-2 (NSC828583), SN-011 (NSC837082), adavosertib (NSC754352), prexasertib (NSC758257), carboplatin (NSC241240) and oxaliplatin (NSC266046), were obtained from the National Cancer Institute (NCI) Developmental Therapeutics Program Chemical Repository (21). The FDA-approved anticancer drug set is available from the Developmental Therapeutics Program at https://dtp.cancer.gov/organization/dscb/obtaining/. […] The stock solutions were prepared in dimethyl sulfoxide (DMSO, Sigma-Aldrich, St. Louis, MO, cat. D2650), except for the platinum compounds which were prepared in saline (Quality Biological, Gaithersburg, MD, cat. 114-055-101), at 800-fold the tested concentration and stored at -70 degrees C prior to their use. All drugs and investigational agents were tested over a range starting from a high concentration at or near the clinical Cmax and decreasing in half-log increments. If the clinical Cmax for an agent had not been determined, the highest concentration tested was 10 microM, except for SN-38, which was tested at a high concentration of 1 microM.
Cell Culture. All cells were maintained in an incubator at 37 degrees C and 5% CO2 with 95% humidity. The PDC lines were cultured according to standard operating procedures established by the NCI PDMR (https://pdmr.cancer.gov). Table 3 of the manuscript, lists the cell lines along with the number of the three cell types plated to form the mct-spheroids and media for tumor cell growth. After thawing, all PDC lines, except 997537-175-T-J1-PDC and 415267-285-R-J2-PDC, were cultured in Matrigel-coated flasks prepared with a working solution of 1X Ham's F-12 nutrient mix, without supplementation (Thermo Fisher Scientific, cat. 11765054), 100 U/mL penicillin-streptomycin (Thermo Fisher Scientific, cat. 15140122), and 2.5% Matrigel (Corning Inc., Corning, NY, cat. 354248) for the first three passages. The two PDC lines 997537-175-T-J1-PDC and 415267-285-R-J2-PDC were cultured on uncoated flasks. The 857933-349-R-J2-PDC line was cultured in 6C/Colon 1B media containing advanced DMEM/F-12 (Thermo Fisher Scientific, cat. 12634028), 10 mM HEPES (Thermo Fisher Scientific, cat. 15630080), 1X GlutaMAX supplement (Thermo Fisher Scientific, cat. 35050061), 0.1 mg/mL primocin (InvivoGen, San Diego, CA, cat. ant-pm-2), 10% defined fetal bovine serum, heat inactivated (HyClone Laboratories Inc., Logan, UT, cat. SH30070.03HI), 50% L-WRN conditioned media (ATCC, cat. CRL-3276), 1.25 mM N-Acetyl-L-cysteine (Sigma-Aldrich, cat. A9165), 10 mM nicotinamide (Sigma-Aldrich, cat. N0636), 1X B-27 supplement (Thermo Fisher Scientific, cat. 17504044), 1X N-2 supplement (Thermo Fisher Scientific, cat. […]
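Further: spheroids exposed to compounds for seven days before readout.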
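Wherever viability, T/C is given: 100% = DMSO vehicle control viability.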

Molecule Cn1ncnc1[C@H]1c2n[nH]c(=O)c3cc(F)cc(c23)N[C@@H]1c1ccc(F)cc1 + COC1C(OC(N)=O)C(O)C(Oc2ccc3c(O)c(NC(=O)c4ccc(O)c(CC=C(C)C)c4)c(=O)oc3c2C)OC1(C)C has an IC50 (second compound 0.0316 µM) greater than 0.1 µM, an IC50 (second compound 0.1 µM) greater than 0.1 µM and an IC50 (second compound 0.316 µM) greater than 0.1 µM. It also gave an IC50 (second compound 1 µM) greater than 0.1 µM, an IC50 (second compound 3.16 µM) greater than 0.1 µM and an IC50 (second compound 10 µM) greater than 0.1 µM. The viability, T/C (second compound 0.0316 µM, first compound 0.000316 µM) was 110%, the viability, T/C (second compound 0.0316 µM, first compound 0.001 µM) was 95.8% and the viability, T/C (second compound 0.0316 µM, first compound 0.00316 µM) was 102%. The viability, T/C (second compound 0.0316 µM, first compound 0.01 µM) was 99.8%, the viability, T/C (second compound 0.0316 µM, first compound 0.0316 µM) was 99% and the viability, T/C (second compound 0.0316 µM, first compound 0.1 µM) was 95.4%. For the same molecule, the viability, T/C (second compound 0.1 µM, first compound 0.000316 µM) was 110%, the viability, T/C (second compound 0.1 µM, first compound 0.001 µM) was 108% and the viability, T/C (second compound 0.1 µM, first compound 0.00316 µM) was 109%. For the same molecule, the viability, T/C (second compound 0.1 µM, first compound 0.01 µM) was 101%, the viability, T/C (second compound 0.1 µM, first compound 0.0316 µM) was 99.4% and the viability, T/C (second compound 0.1 µM, first compound 0.1 µM) was 91.1%. For the same molecule, the viability, T/C (second compound 0.316 µM, first compound 0.000316 µM) was 104%, the viability, T/C (second compound 0.316 µM, first compound 0.001 µM) was 102% and the viability, T/C (second compound 0.316 µM, first compound 0.00316 µM) was 103%. It also gave a viability, T/C (second compound 0.316 µM, first compound 0.01 µM) of 102%, a viability, T/C (second compound 0.316 µM, first compound 0.0316 µM) of 94.1% and a viability, T/C (second compound 0.316 µM, first compound 0.1 µM) of 91.1%. It also gave a viability, T/C (second compound 1 µM, first compound 0.000316 µM) of 108%, a viability, T/C (second compound 1 µM, first compound 0.001 µM) of 97.1% and a viability, T/C (second compound 1 µM, first compound 0.00316 µM) of 103%. It also gave a viability, T/C (second compound 1 µM, first compound 0.01 µM) of 94.2%, a viability, T/C (second compound 1 µM, first compound 0.0316 µM) of 99.1% and a viability, T/C (second compound 1 µM, first compound 0.1 µM) of 99%. The viability, T/C (second compound 3.16 µM, first compound 0.000316 µM) was 101%, the viability, T/C (second compound 3.16 µM, first compound 0.001 µM) was 99.6% and the viability, T/C (second compound 3.16 µM, first compound 0.00316 µM) was 102%. For the same molecule, the viability, T/C (second compound 3.16 µM, first compound 0.01 µM) was 102%, the viability, T/C (second compound 3.16 µM, first compound 0.0316 µM) was 96.5% and the viability, T/C (second compound 3.16 µM, first compound 0.1 µM) was 93.5%. For the same molecule, the viability, T/C (second compound 10 µM, first compound 0.000316 µM) was 106%, the viability, T/C (second compound 10 µM, first compound 0.001 µM) was 93.3% and the viability, T/C (second compound 10 µM, first compound 0.00316 µM) was 108%. The viability, T/C (second compound 10 µM, first compound 0.01 µM) was 96%, the viability, T/C (second compound 10 µM, first compound 0.0316 µM) was 104% and the viability, T/C (second compound 10 µM, first compound 0.1 µM) was 91%.
